# Results reported in ChEMBL document CHEMBL1201862, “PubChem BioAssay data set” (2004).
#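 Dose response: 5 concentrations. Exposure: 48 h. Format: 96-well plates. Endpoint: linear interpolation; highest concentration if not reached. GI50 = concentration required for 50% inhibition of growth.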 Active and inactive are the calls of the source. No stated cut-off is given here; in the data, active = GI50 up to about 1.1 µM and inactive = higher. Non-standard residues stand in square brackets, D forms with d. Residues, ends and D or L forms follow the SMILES beside them. *: point of attachment. Bn2Val = CC(C)[C@@H](C(=O)*)N(Cc1ccccc1)Cc1ccccc1; NMeV = CN[C@H](C(=O)O)C(C)C; X32 = COc1ccc(CN*)c(OC)c1; dNMeA = CN[C@H](C)C(=O)O
# Experiments:
# Test in all cases: growth of human tumour cells (NCI), 48 h
# SK-MEL-28 = tested on: SK-MEL-28
# U-251 = tested on: U-251
# OVCAR-3 = tested on: OVCAR-3
# MDA-MB-435 = tested on: MDA-MB-435
# HCT-116 = tested on: HCT-116
# OVCAR-8 = tested on: OVCAR-8
# MDA-MB-231 = tested on: MDA-MB-231
# SF-539 = tested on: SF-539
# MDA-N = tested on: MDA-N
# SNB-19 = tested on: SNB-19
# NCI-H522 = tested on: NCI-H522
# HCT-15 = tested on: HCT-15
# MOLT-4 = tested on: MOLT-4
# Hs-578T = tested on: Hs-578T
# NCI-H23 = tested on: NCI-H23
# NCI/ADR-RES = tested on: NCI/ADR-RES
# ACHN = tested on: ACHN
# RXF 393 = tested on: RXF 393
# HOP-62 = tested on: HOP-62
Structure (SMILES),GI50 (SK-MEL-28),GI50 (U-251),GI50 (OVCAR-3),GI50 (MDA-MB-435),GI50 (HCT-116),GI50 (OVCAR-8),GI50 (MDA-MB-231),GI50 (SF-539),GI50 (MDA-N),GI50 (SNB-19),GI50 (NCI-H522),GI50 (HCT-15),GI50 (MOLT-4),GI50 (Hs-578T),GI50 (NCI-H23),GI50 (NCI/ADR-RES),GI50 (ACHN),GI50 (RXF 393),GI50 (HOP-62)
C[C@@H]1C[C@@]2(O[C@@H]2C)C(=O)O[C@@H]2CCN3CC=C(COC(=O)[C@]1(C)O)[C@H]23,> 100 µM (inactive),> 100 µM (inactive),> 100 µM (inactive),> 100 µM (inactive),> 100 µM (inactive),> 100 µM (inactive),> 100 µM (inactive),> 100 µM (inactive),> 100 µM (inactive),> 100 µM (inactive),> 100 µM (inactive),> 100 µM,> 100 µM (inactive),> 100 µM (inactive),> 100 µM (inactive),> 100 µM (inactive),> 100 µM (inactive),–,–
CCc1n[nH]c(=O)n1NC(=O)/C=C\C(=O)O,–,> 100 µM (inactive),> 100 µM (inactive),> 100 µM (inactive),> 100 µM (inactive),> 100 µM (inactive),> 100 µM (inactive),> 100 µM (inactive),> 100 µM (inactive),–,> 100 µM (inactive),> 100 µM,> 100 µM (inactive),> 100 µM (inactive),> 100 µM (inactive),> 100 µM (inactive),–,> 100 µM (inactive),> 100 µM (inactive)
CC(=O)c1c(O)cc(O)c(-c2c(C)cc(O)c3c2C(=O)c2cccc(O)c2C3=O)c1O,20.7 µM (inactive),14 µM (inactive),17.6 µM (inactive),16.7 µM (inactive),15.4 µM (inactive),14.7 µM (inactive),25.1 µM (inactive),15.3 µM (inactive),16 µM (inactive),21 µM (inactive),10 µM (inactive),14.1 µM,10.8 µM (inactive),7.48 µM (inactive),–,15.8 µM (inactive),12.9 µM (inactive),–,14.9 µM (inactive)
CCOc1cc(/C=C2\N=C(c3ccccc3)N(c3nc4ccccc4s3)C2=O)ccc1O,64.4 µM (inactive),47.9 µM (inactive),46.8 µM (inactive),40.1 µM (inactive),42.3 µM (inactive),34.7 µM (inactive),> 100 µM (inactive),50 µM (inactive),31.3 µM (inactive),–,23.7 µM (inactive),24.5 µM,19.5 µM (inactive),29 µM (inactive),21.7 µM (inactive),24.3 µM (inactive),37.3 µM (inactive),> 100 µM (inactive),75 µM (inactive)
CC#CC(O)(C(=O)OCCCN(C)C)C1CCCCC1 (stereo unspecified),> 100 µM (inactive),> 100 µM (inactive),> 100 µM (inactive),> 100 µM (inactive),> 100 µM (inactive),> 100 µM (inactive),> 100 µM (inactive),> 100 µM (inactive),> 100 µM (inactive),> 100 µM (inactive),–,> 100 µM,> 100 µM (inactive),> 100 µM (inactive),> 100 µM (inactive),> 100 µM (inactive),> 100 µM (inactive),> 100 µM (inactive),> 100 µM (inactive)
CCc1c(Cc2cccc3ccccc23)n2c(nc1=O)SCC2OCCO (stereo unspecified),> 100 µM (inactive),76.9 µM (inactive),–,18.2 µM (inactive),> 100 µM (inactive),33.1 µM (inactive),> 100 µM (inactive),> 100 µM (inactive),40.8 µM (inactive),> 100 µM (inactive),49 µM (inactive),43.5 µM,26.6 µM (inactive),> 100 µM (inactive),42.8 µM (inactive),81.5 µM (inactive),> 100 µM (inactive),> 100 µM (inactive),–
O=c1[nH]c(Nc2nc3ccccc3[nH]2)nc2c1CCC2,82 µM (inactive),64 µM (inactive),> 100 µM (inactive),> 100 µM (inactive),> 100 µM (inactive),42.6 µM (inactive),14.8 µM (inactive),42.7 µM (inactive),> 100 µM (inactive),> 100 µM (inactive),> 100 µM (inactive),> 100 µM,–,22.6 µM (inactive),74.3 µM (inactive),> 100 µM (inactive),> 100 µM (inactive),96.4 µM (inactive),49.9 µM (inactive)
COc1ccc(CNC(=O)[C@@H]2CCCN2C(=O)[C@@H](C)N(C)C(=O)[C@H](C(C)C)N(C)C(=O)[C@@H](NC(=O)[C@H](C(C)C)N(Cc2ccccc2)Cc2ccccc2)C(C)C)c(OC)c1 (Bn2Val-V[NMeV][dNMeA]P-X32),3.29 µM (inactive),2.25 µM (inactive),3.63 µM (inactive),2.61 µM (inactive),3.13 µM (inactive),6.41 µM (inactive),1.51 µM (inactive),2.44 µM (inactive),2.35 µM (inactive),3.4 µM (inactive),3.56 µM (inactive),3.05 µM,–,7.53 µM (inactive),2.94 µM (inactive),2.97 µM (inactive),3.75 µM (inactive),1.85 µM (inactive),4.91 µM (inactive)
O=C(O)c1ccccc1NC(=S)c1ccccc1,–,47.8 µM (inactive),34.4 µM (inactive),52.8 µM (inactive),48.3 µM (inactive),33.9 µM (inactive),60.5 µM (inactive),44.4 µM (inactive),38.7 µM (inactive),48.5 µM (inactive),13.5 µM (inactive),30.3 µM,67.5 µM (inactive),53.7 µM (inactive),80.9 µM (inactive),51.1 µM (inactive),24.7 µM (inactive),51.9 µM (inactive),50.4 µM (inactive)
COc1cc([C@@H]2c3cc4c(cc3[C@@H](OC3OC5COC(C)OC5C(OC(=O)CN5CCN(C)CC5)C3OC(=O)CN3CCN(C)CC3)C3COC(=O)[C@@H]32)OCO4)cc(OC)c1OC(=O)CN1CCN(C)CC1 (stereo partly specified),–,26.9 µM (inactive),> 100 µM (inactive),> 100 µM (inactive),25.5 µM (inactive),60.8 µM (inactive),54.3 µM (inactive),23.1 µM (inactive),> 100 µM (inactive),78.7 µM (inactive),27.2 µM (inactive),> 100 µM,2.49 µM (inactive),56 µM (inactive),22.3 µM (inactive),29.9 µM (inactive),54.5 µM (inactive),> 100 µM (inactive),40.2 µM (inactive)
CC12O[C@]3([C@H](C(=O)N4CCOC43C)[C@H]1Cl)[C@H]1O[C@H]12 (stereo partly specified),> 100 µM (inactive),> 100 µM (inactive),> 100 µM (inactive),> 100 µM (inactive),> 100 µM (inactive),> 100 µM (inactive),> 100 µM (inactive),> 100 µM (inactive),> 100 µM (inactive),> 100 µM (inactive),> 100 µM (inactive),> 100 µM,> 100 µM (inactive),> 100 µM (inactive),–,> 100 µM (inactive),> 100 µM (inactive),–,> 100 µM (inactive)
C[C@@H](c1ccccc1)N(CC#N)[C@H]1CCC[C@]1(O)/C=C/c1ccc2c(c1)OCO2,> 25 µM (inactive),> 25 µM (inactive),–,> 25 µM (inactive),> 25 µM (inactive),> 25 µM (inactive),> 25 µM (inactive),–,> 25 µM (inactive),> 25 µM (inactive),> 25 µM (inactive),> 25 µM,> 25 µM (inactive),> 25 µM (inactive),> 25 µM (inactive),> 25 µM (inactive),4.31 µM (inactive),> 25 µM (inactive),> 25 µM (inactive)
CC1CCC2(O)C3(C)CC4(O)OC2(C1O)C1(O)C3(O)C(OC(=O)c2ccc[nH]2)C(O)(C(C)C)C41C (stereo unspecified),> 100 µM (inactive),> 100 µM (inactive),> 100 µM (inactive),> 100 µM (inactive),> 100 µM (inactive),> 100 µM (inactive),> 100 µM (inactive),> 100 µM (inactive),> 100 µM (inactive),> 100 µM (inactive),> 100 µM (inactive),> 100 µM,–,> 100 µM (inactive),> 100 µM (inactive),> 100 µM (inactive),> 100 µM (inactive),> 100 µM (inactive),> 100 µM (inactive)
CS(=O)(=O)Nc1ccc2c(c1)N(S(C)(=O)=O)CC2COS(C)(=O)=O (stereo unspecified),> 100 µM (inactive),25.8 µM (inactive),34.6 µM (inactive),> 100 µM (inactive),54.6 µM (inactive),94.4 µM (inactive),> 100 µM (inactive),41.9 µM (inactive),> 100 µM (inactive),–,19.7 µM (inactive),> 100 µM,32.5 µM (inactive),94.2 µM (inactive),45.1 µM (inactive),> 100 µM (inactive),35.7 µM (inactive),18.7 µM (inactive),31.1 µM (inactive)
Cc1ccnc2c1ccc1nc3ccccc3n12,–,–,> 100 µM (inactive),> 100 µM (inactive),28.1 µM (inactive),28.9 µM (inactive),54.7 µM (inactive),58.9 µM (inactive),> 100 µM (inactive),–,17.9 µM (inactive),–,> 100 µM (inactive),25.8 µM (inactive),> 100 µM (inactive),37.8 µM (inactive),–,56.2 µM (inactive),89.7 µM (inactive)
CCCCCCCCCCCC1=C(O)C(=O)C(CC2=C(O)C(=O)C(CCCCCCCCCCC)=C(O)C2=O)=C(O)C1=O,> 100 µM (inactive),43.5 µM (inactive),–,> 100 µM (inactive),> 100 µM (inactive),29.8 µM (inactive),28.6 µM (inactive),> 100 µM (inactive),> 100 µM (inactive),21.1 µM (inactive),40.6 µM (inactive),> 100 µM,> 100 µM (inactive),22.8 µM (inactive),54.6 µM (inactive),> 100 µM (inactive),76 µM (inactive),3.19 µM (inactive),–
